These are literature values, as cited in patent US12064417B2, “Combination comprising a glucocorticoid and EDO-S101” (Purdue Pharmaceutical Products L.P., priority 2014, dated 2024).

The test system of this series is multiple myeloma cell lines. The note with it: in vitro, relative to bendamustin.

For the molecule `Cn1c(CCCCCCC(=O)NO)nc2cc(N(CCCl)CCCl)ccc21` [EDO-S101], the “activity greater than the activity shown by bendamustin” value was 35-100.
